One assay concerns the target T1, Nitric oxide synthase 3 (Homo sapiens, UniProt P29474).
T1 sequence (P29474 whole entry): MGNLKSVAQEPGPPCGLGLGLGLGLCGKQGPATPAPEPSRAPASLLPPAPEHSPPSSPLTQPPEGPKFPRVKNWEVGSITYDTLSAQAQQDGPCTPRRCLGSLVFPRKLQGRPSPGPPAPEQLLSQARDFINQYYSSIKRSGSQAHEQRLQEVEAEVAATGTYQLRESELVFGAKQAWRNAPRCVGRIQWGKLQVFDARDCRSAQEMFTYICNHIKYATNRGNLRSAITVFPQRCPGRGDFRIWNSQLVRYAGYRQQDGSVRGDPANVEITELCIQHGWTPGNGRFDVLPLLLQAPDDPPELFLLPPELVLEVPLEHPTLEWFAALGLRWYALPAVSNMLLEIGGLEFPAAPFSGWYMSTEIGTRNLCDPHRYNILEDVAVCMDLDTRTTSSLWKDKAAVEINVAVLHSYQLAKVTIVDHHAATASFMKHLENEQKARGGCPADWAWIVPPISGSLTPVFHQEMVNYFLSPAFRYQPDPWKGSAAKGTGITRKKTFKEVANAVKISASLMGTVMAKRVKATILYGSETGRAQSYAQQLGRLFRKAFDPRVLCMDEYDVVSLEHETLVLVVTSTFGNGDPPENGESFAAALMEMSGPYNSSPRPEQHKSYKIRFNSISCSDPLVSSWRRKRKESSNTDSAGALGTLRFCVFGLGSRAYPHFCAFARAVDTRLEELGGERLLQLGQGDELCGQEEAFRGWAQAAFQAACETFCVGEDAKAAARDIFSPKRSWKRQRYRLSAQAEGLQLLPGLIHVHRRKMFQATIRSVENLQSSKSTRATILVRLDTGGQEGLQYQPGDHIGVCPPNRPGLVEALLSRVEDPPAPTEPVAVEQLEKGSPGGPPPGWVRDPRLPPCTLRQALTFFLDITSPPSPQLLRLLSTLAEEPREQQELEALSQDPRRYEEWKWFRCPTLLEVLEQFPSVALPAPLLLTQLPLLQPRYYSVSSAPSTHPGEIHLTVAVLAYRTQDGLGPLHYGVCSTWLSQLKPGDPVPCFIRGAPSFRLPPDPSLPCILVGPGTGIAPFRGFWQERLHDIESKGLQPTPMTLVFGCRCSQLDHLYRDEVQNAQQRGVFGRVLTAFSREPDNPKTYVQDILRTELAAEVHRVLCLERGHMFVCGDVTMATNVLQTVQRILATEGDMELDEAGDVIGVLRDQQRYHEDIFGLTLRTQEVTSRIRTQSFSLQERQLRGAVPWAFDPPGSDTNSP
In words: In vitro inhibition of human endothelial nitric oxide synthase.

In assay [1] the target is Nitric oxide synthase, inducible (Homo sapiens, UniProt P35228). In words: In vitro inhibition of human inducible nitric oxide synthase.
In assay [2] the target is Nitric oxide synthase 1 (Homo sapiens, UniProt P29475). As to the kind of experiment: In vitro inhibition of human neuronal nitric oxide synthase.
Assay [3] deals with Nitric oxide synthase 1 (Rattus norvegicus, UniProt P29476). In words: In vitro inhibition of rat neuronal nitric oxide synthase.

SMILES strings stand for the structures.

Sequence of Nitric oxide synthase 1 (Homo sapiens, UniProt P29475) (P29475 whole entry): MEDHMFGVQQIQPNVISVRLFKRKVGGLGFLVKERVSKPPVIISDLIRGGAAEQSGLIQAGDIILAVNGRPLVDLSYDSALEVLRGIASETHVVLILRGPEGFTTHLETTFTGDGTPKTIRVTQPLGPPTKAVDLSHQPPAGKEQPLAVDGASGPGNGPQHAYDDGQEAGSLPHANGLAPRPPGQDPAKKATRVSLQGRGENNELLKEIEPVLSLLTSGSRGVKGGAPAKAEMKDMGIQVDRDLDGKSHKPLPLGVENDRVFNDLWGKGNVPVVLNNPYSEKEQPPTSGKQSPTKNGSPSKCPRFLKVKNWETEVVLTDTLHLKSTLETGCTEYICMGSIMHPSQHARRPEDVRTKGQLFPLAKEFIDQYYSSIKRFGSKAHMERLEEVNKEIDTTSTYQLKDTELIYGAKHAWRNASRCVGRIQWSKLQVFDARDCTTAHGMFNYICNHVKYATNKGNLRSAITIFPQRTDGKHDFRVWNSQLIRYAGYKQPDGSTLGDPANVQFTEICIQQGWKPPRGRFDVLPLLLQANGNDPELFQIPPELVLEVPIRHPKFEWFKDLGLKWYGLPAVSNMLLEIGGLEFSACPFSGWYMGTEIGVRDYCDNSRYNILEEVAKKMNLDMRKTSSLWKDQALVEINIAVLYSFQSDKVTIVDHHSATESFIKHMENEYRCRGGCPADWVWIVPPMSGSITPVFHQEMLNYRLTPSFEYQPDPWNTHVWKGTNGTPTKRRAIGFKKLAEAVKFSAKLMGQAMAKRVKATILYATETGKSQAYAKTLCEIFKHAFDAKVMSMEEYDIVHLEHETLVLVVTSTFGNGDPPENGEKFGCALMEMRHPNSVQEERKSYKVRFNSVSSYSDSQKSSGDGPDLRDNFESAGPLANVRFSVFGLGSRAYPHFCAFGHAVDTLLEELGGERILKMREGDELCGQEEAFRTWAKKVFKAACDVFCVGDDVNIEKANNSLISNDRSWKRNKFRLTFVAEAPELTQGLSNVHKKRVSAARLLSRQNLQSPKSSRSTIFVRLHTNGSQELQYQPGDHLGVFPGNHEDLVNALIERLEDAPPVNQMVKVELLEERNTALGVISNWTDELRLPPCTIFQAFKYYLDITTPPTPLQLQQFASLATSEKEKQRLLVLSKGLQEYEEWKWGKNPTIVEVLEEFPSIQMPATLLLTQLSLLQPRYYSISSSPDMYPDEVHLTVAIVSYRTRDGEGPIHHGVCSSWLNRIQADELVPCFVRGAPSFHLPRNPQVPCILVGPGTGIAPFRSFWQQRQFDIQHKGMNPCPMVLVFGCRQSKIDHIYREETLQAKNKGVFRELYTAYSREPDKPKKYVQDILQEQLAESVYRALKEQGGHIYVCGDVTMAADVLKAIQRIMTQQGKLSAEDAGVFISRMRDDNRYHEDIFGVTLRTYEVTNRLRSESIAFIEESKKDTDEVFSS
Sequence of Nitric oxide synthase, inducible (P35228 whole entry): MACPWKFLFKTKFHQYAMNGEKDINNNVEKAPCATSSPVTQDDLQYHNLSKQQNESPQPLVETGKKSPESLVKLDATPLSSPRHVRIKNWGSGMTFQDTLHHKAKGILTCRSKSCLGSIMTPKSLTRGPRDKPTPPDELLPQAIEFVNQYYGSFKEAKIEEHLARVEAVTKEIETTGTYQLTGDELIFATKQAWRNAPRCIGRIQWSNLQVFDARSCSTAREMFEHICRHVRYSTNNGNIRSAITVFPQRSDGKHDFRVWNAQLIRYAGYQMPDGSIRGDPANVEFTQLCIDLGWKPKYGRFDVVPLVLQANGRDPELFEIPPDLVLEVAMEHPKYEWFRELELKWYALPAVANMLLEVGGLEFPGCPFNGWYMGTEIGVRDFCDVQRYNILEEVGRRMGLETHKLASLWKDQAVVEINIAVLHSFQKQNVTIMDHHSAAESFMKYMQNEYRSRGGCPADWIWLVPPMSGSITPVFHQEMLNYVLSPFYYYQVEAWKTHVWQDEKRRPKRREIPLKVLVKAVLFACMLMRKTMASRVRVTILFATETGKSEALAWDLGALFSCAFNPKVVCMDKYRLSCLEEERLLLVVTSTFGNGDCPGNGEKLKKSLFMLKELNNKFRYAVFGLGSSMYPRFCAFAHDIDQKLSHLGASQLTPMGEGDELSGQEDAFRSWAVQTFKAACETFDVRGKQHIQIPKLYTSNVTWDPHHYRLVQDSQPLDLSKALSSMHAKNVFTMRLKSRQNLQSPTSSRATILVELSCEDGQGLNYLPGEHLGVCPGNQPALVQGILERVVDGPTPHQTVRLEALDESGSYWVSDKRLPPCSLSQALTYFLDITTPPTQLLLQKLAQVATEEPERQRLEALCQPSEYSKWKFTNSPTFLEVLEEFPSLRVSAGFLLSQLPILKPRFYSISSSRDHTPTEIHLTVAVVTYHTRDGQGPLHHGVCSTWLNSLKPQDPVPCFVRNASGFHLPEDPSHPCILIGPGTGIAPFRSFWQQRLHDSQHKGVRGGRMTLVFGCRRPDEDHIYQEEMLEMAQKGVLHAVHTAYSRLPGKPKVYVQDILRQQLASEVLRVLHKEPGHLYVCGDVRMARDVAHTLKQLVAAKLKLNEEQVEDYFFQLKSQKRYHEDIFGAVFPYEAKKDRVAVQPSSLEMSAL
Sequence of Nitric oxide synthase 1 (Rattus norvegicus, UniProt P29476) (P29476 whole entry): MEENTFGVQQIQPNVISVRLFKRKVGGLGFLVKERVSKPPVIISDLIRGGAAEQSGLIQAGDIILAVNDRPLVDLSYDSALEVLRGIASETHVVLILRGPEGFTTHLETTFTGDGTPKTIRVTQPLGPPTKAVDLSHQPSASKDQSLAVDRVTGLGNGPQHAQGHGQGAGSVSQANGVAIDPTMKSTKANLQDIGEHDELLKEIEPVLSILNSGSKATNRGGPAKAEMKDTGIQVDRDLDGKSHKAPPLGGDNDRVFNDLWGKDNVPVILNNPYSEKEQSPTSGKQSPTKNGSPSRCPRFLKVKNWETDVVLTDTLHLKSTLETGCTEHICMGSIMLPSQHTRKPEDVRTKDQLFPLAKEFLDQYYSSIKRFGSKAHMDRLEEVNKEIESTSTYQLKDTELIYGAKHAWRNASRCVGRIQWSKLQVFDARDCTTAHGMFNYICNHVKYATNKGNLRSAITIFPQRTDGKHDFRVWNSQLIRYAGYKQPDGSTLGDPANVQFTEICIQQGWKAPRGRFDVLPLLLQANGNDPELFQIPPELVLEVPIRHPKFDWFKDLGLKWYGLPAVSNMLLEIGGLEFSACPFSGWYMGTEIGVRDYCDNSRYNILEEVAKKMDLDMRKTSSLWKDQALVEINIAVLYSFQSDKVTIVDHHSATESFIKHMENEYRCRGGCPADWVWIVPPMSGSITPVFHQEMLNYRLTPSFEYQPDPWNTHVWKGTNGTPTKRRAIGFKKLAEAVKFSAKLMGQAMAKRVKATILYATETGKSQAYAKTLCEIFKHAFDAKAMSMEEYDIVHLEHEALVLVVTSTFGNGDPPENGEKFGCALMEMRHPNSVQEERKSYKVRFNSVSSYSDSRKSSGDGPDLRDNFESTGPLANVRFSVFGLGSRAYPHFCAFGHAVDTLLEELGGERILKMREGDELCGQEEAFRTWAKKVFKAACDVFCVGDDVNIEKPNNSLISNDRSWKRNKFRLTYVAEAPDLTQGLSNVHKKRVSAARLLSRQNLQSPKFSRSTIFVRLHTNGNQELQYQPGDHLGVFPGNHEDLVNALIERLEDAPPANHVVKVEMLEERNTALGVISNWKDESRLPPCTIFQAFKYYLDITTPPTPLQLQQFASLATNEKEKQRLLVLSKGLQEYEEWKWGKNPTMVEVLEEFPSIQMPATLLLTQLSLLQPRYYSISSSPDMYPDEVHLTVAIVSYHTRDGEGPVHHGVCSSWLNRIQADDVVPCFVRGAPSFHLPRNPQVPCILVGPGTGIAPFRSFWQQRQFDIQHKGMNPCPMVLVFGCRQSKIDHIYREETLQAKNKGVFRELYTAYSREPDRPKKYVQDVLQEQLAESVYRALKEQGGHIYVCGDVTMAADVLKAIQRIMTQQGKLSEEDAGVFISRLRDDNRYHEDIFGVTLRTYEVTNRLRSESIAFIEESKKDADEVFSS

Broadly, the IC50 is the concentration at which inhibition is half-maximal. High values mean lower potency, low ones higher potency. For `Nc1cccc(-c2ccc(OCCN3CCCC3)c3ccccc23)n1`, the IC50 against Nitric oxide synthase 3 amounted to 3710 nM; in assay [1] it was 1770 nM; against Nitric oxide synthase 1 [2], 250 nM; on Nitric oxide synthase 1 [3], 175 nM.
For `CN1CCCC1COc1ccc(-c2cccc(N)n2)c2ccccc12` (stereo unspecified), the IC50 is 2930 nM at Nitric oxide synthase 3, 2850 nM in assay [1], 112 nM on Nitric oxide synthase 1 [2] and 80.5 nM on Nitric oxide synthase 1 [3].
Turning to `Nc1cccc(-c2ccc(OCCN3CCCC3)c3c2CCCC3)n1`, the IC50 against Nitric oxide synthase 3 came out at 2210 nM; in assay [1], 358 nM; on Nitric oxide synthase 1 [2], 141 nM; against Nitric oxide synthase 1 [3] it was 80 nM.
Turning to `CN(C)CCOc1ccc(-c2cccc(N)n2)c2c1C1CCC2C1` (stereo unspecified), the IC50 on Nitric oxide synthase 3 worked out at 19000 nM; in assay [1] it was 1080 nM; against Nitric oxide synthase 1 [2] it was 120 nM; against Nitric oxide synthase 1 [3], 185 nM.
Regarding `CN1CCC(Oc2ccc(-c3cccc(N)n3)c3ccccc23)C1` (stereo unspecified), the concentration for half-maximal inhibition (IC50) against Nitric oxide synthase 3 turned out to be 13000 nM; in assay [1] it was 2070 nM; at Nitric oxide synthase 1 [2], 70.3 nM; against Nitric oxide synthase 1 [3] it was 48 nM.
On to `Cc1ccnc(N)c1`, for which the IC50 at Nitric oxide synthase 1 [3] was 40 nM.
With `Nc1cccc(-c2ccc(OCCN3CCCC3)c3c2CCC3)n1`, the IC50 against Nitric oxide synthase 3 worked out at 785 nM; in assay [1] it was 450 nM; on Nitric oxide synthase 1 [2], 117 nM; against Nitric oxide synthase 1 [3], 59 nM.
With `CN(C)CCOc1ccc(-c2cccc(N)n2)c2c1CCCCC2`, the IC50 against Nitric oxide synthase 3 is 5750 nM; in assay [1], 2100 nM; on Nitric oxide synthase 1 [2], 109 nM; against Nitric oxide synthase 1 [3], 93 nM.
On to `CN1CCN(CCOc2ccc(-c3cccc(N)n3)c3c2CCCC3)CC1`, for which the IC50 came out at 10600 nM against Nitric oxide synthase 3, 1280 nM in assay [1], 121 nM at Nitric oxide synthase 1 [2] and 99.2 nM on Nitric oxide synthase 1 [3].
The corresponding values for `CN1CCN(CCOc2ccc(-c3cccc(N)n3)c3c2CCC3)CC1` are 3030 nM, 2200 nM, 123 nM and 82 nM.
Take `CN(C)CCOc1ccc(-c2cccc(N)n2)c2c1CCC2`: the IC50 is 1570 nM at Nitric oxide synthase 3, 592 nM in assay [1], 50.6 nM on Nitric oxide synthase 1 [2] and 21.8 nM against Nitric oxide synthase 1 [3].
For `O=[N+]([O-])c1cccc2cn[nH]c12` [7-NITROINDAZOLE], on Nitric oxide synthase 1 [2], the IC50 came out at 2500 nM.
Regarding `CN(C)C1CCCCC1Oc1ccc(-c2cccc(N)n2)c2ccccc12` (stereo unspecified), the IC50 on Nitric oxide synthase 3 stood at 13000 nM; in assay [1], 2370 nM; against Nitric oxide synthase 1 [2], 161 nM; against Nitric oxide synthase 1 [3] it was 140 nM.
For `Nc1cccc(-c2ccc(OCC3CC4CCN3CC4)c3ccccc23)n1` (stereo unspecified), in that order: 3770 nM, 5800 nM, 96.3 nM and 88 nM.
The corresponding values for `CN(C)CCOc1ccc(-c2cccc(N)n2)c2ccccc12` are 5790 nM, 4600 nM, 220 nM and 167 nM.
Take `CN(C)CCOc1ccc(-c2cccc(N)n2)c2c1CCCC2`: the IC50 on Nitric oxide synthase 3 was 3530 nM; in assay [1], 517 nM; on Nitric oxide synthase 1 [2], 70.9 nM; at Nitric oxide synthase 1 [3], 34 nM.
For `CN(C)C1CCN(CCOc2ccc(-c3cccc(N)n3)c3ccccc23)CC1`, the IC50 on Nitric oxide synthase 3 is 7020 nM; in assay [1], 5750 nM; against Nitric oxide synthase 1 [2], 203 nM; against Nitric oxide synthase 1 [3], 195 nM.
Consider `CN1CCN(CCOc2ccc(-c3cccc(N)n3)c3ccccc23)CC1`, for which the IC50 came to 12000 nM at Nitric oxide synthase 3, 9380 nM in assay [1], 390 nM on Nitric oxide synthase 1 [2] and 306 nM at Nitric oxide synthase 1 [3].

The values above are taken from ChEMBL document CHEMBL1149107, “Structure-activity relationships of potent, selective inhibitors of neuronal nitric oxide synthase based on the 6-phenyl-2-aminopyridine structure” (J Med Chem, 2004).
